Measured values as given in patent publication US20200268019A1, “USE OF ZINC AND COPPER GLUCONATE IN THE TREATMENT OF METHICILLIN-RESISTANT STAPHYLOCOCCUS AUREUS” (Distributors Processing, Inc., priority 2015, published 2020).

Legend:
[1] = Test of efficacy and safety: zinc source in dry feed of domesticated pigs, daily weight gain; details: for Average daily weight gain: 83 days
Source text: In a confirmation experiment the safety of using powdered zinc gluconate as a conventional dietary supplement in the dietary mineral supply of domesticated pigs was examined in a controlled study.
3 groups of pigs, each comprising 11 individuals were identically fed save for the source of zinc as according to Table 1. Group 1, which was the control group, was fed […] 75% zinc oxide per ton dry feed according to normal feeding recommendations. Group 2 was fed zinc gluconate as a powder. Group 3 was fed zinc gluconate and further including 100 g Micro Aid® per ton feed. The amount of zinc fed to the animals of the three study groups was identical and corresponding to 23 g zinc per ton dry feed. Micro Aid® is dietary supplement known to enhance growth and reduce ammonia excretions in domesticated pigs. It is a registered trade mark of DPI Global, 17656 Avenue 168, Porterville, Calif. 93257. Micro Aid® has a recognized effect on the growth increase of pigs on the order of 4% per 100 g added Micro Aid® per ton feed.
The daily gain of weight for each individual was registered during the trial period and the trial was terminated after 83 days. For comparison the expected weight gain of adding Micro Aid® to a feed mixture comprising one of the two zinc sources has been calculated.

[2] = Study 1: randomized trial of 0.05% zinc gluconate in pellet feed, productivity and health of pigs; details: for combined disease and mortality withdrawal rate / pigs treated for diarrhea during the study period: 204 pigs per group, 12 weeks
Protocol: In a randomized trial the effect of the addition of 0.05% zinc gluconate to a standard pellet feed was tested for efficacy against Salmonella, health condition of the digestive system including stomach and intestines, and productivity in pigs, and compared to an otherwise identical diet without zinc gluconate. The control group received zinc in the form of zinc oxide to the same amount as the study group.
408 pigs from a single farm were randomly partitioned into two groups of 204 pigs each and fed with either a pelleted control feed or an otherwise identical pelleted feed comprising 0.05% zinc gluconate. In order maintain comparability of control group to study group and to diminish the influence of lung disease on the mortality of the control group, both groups were twice vaccinated with Porcilis against severe lung disease.
All pigs were followed for 12 weeks starting with their inclusion into the trial and ending with their transport to a meat processing plant. For all pigs in the study data on the feed uptake, growth, eventual diseases suffered during the study period were collected as well as including the complete slaughter records of the meat processing plant into the study. Pigs were included into the trial upon reaching an entry weight of on the average 33 kg. The pigs were weighed at inclusion into the trial, after 6 weeks, and after 12 weeks. […] The pigs in the study were allowed to eat and drink freely and the access to water and dietary was unrestricted.

[3] = test system: Salmonella; assay: Study 1: test for antigens against Salmonella in the blood of pigs; format: in vivo; details: for Relative risk: Salmonella, relative to control; for Pct. positives / Positives: Salmonella-positive blood samples; for Positives: of 126 (control) / 108 (study) samples
Protocol: A subset of the pigs in both study groups were tested for Salmonella prior to shipping out of the test and to the meat processing facility by testing for antigens against Salmonella in the blood. An inclusion rate of 60% was desired for both groups but was not reached for the study group.

[4] = administered as pills; cited from earlier work
[5] = Study 2: comparison of two farms, open wounds and footpad lesions in sows; format: in vivo
Protocol: (§1) A controlled comparison study between two groups of pigs at two farms in the province of Nordjylland, Denmark, was performed, each farm having about 600 sows in production and each farm feeding the sows in the production zinc according to veterinarian recommendations of 75 ppm zinc per FU. At farm 1, the sows received zinc in the form of zinc oxide whereas at farm 2, the sows received zinc in the form of zinc gluconate.

[6] = Study 3: birth weight of piglets and milk production of sows; format: in vivo
Protocol: as §1

[7] = pigs, 11 per group, 23 g zinc per ton dry feed
[8] = pigs having weights between 33-65 kg
[9] = pigs weighing between 65-105 kg

With `[O]=[Zn]` [zinc oxide, reference compound] the “Average daily weight gain” value [1, 7] was 822 g/daily, the “combined disease and mortality withdrawal rate” value [2] was 1.7% and the “pigs treated for diarrhea during the study period” value [2] was “about 15%”. The “feeding units (FU) to achieve 1 kg of growth” value (“feeding units (FU)” for short) ([2]; average, whole trial 33-105 kg) was 2,85 FU/kg, the “feeding units (FU)” value [2, 8] was 2,53 FU/kg and the “feeding units (FU)” value [2, 9] was 3.13 FU/kg. It also gave a Relative risk [3] of 1, a Pct. positives [3] of 30.2% and a Positives [3] of 38. For the same compound, the “added zinc taken up by the digestive system” value [4] was 20%.

In the case of zinc gluconate, the “Average daily weight gain” value ([1]; Group 3: zinc gluconate further including 100 g Micro Aid per ton feed) is reported as 910 g/daily, the “Average daily weight gain” value [1, 7] is reported as 875 g/daily and the “signs of malnourishment or increased infection levels” value ([1]; regular inspection by a veterinarian) is reported as “no signs of these conditions were observed”. The “combined disease and mortality withdrawal rate” value [2] was 1.7%, the “pigs treated for diarrhea during the study period” value [2] was “about 15%” and the “feeding units (FU)” value ([2]; average, whole trial 33-105 kg) was 2.78 FU/kg. The “feeding units (FU)” value [2, 8] was 2,51 FU/kg, the “feeding units (FU)” value [2, 9] was 3.00 FU/kg and the Relative risk [3] was 0.56. For the same compound, the Pct. positives [3] was 22.2%, the Positives [3] was 24 and the “sows suffering from lesions on their footpads” value ([5]; sows of farm 2, 75 ppm zinc per FU) was “disappeared almost completely”. The “number of open wounds” value ([5]; sows, 75 ppm zinc per FU, within a month of the dietary change) was “rapid decrease in the number of open wounds”, the “milk production of the sows” value ([6]; farm 2 compared to farm 1 (zinc oxide)) was “increased compared to the sows of farm 1” and the “weight of piglets at birth” value ([6]; sows of farm 2) was “above average weight at birth”.
